Experimental data from patent publication US11667631B2, “FGFR4 inhibitor, preparation method therefor, and applications thereof” (Jiangsu Hansoh Pharmaceutical Group Co., Ltd., priority 2016, dated 2023).

Key:
SK-HEP-1 cells = test: Inhibition of SK-HEP-1 cell proliferation (CellTiter-Glo); type: cell-based; conditions: Homo sapiens, SK-HEP1; SK-HEP-1 cell proliferation, 72 hours, CellTiter-Glo; read-out: SK-HEP-1 IC50
Method in brief: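 Cells seeded and allowed to attach 16–24 h, then exposed to serially diluted compound for 72 h at 37 °C, 5% CO2. Viability read by CellTiter-Glo luminescence; IC50 fitted from inhibition rates across concentrations.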

Hep 3B cells = test: Inhibition of Hep 3B cell proliferation (CellTiter-Glo); type: cell-based; conditions: Homo sapiens, Hep3B; Hep 3B cell proliferation, 72 hours, CellTiter-Glo; read-out: Hep 3B IC50
Hep 3B cell line tumor = test: Pharmacodynamics test in vivo, Hep 3B tumor-bearing nude mice; conditions: Mus musculus, Hep3B, 336 h, oral 30 mg/kg, 2 times/day, 14 days of administration, read-out: Tumor inhibition rate
Method: a, A Hep 3B cell line was taken from the cell bank, and the cells were resuscitated with the MEM culture medium (MEM+10% FBS+1% Glu+1% SP). The cells were placed in the cell culture bottle after resuscitation (cell type, date, and the name of the culturing person were marked on the bottle wall) and were incubated in a CO2 Incubator (the incubator temperature was 37° C., and the CO2 concentration was 5%).
b, The cells were passaged after 80-90% of the bottom of the culture bottle was covered by the cells. After passage, the cells were further incubated in the CO2 incubator. The process was repeated until the number of cells met the pharmacodynamic requirements in vivo.
c, The cultured cells were collected and counted by automatic cell counter. According to the counting results, the cells were resuspended with PBS to prepare a cell suspension (density: 7×10^7/mL), which was placed in the ice box for use.
a, Nude mouse was marked with a disposable universal ear tag for mouse and rat before inoculation, and the skin of the inoculated site was disinfected with 75% medical alcohol.
b, At the time of inoculation, the cell suspension was mixed well, 0.1˜1 mL of cell suspension was taken with a 1 mL syringe, after removing air bubbles, and the syringe was placed on an ice bag for use.
c, The nude mice were inoculated successively (the inoculated site was located on the right shoulder of the right back of the nude mice, and inoculated subcutaneously with 0.1 mL of cell suspension).
a, Tumor was measured on Day 14 to Day 16 after inoculation depending on the tumor growth, and tumor size was calculated.
Tumor volume calculation: tumor volume (mm^3)=length (mm)×width (mm)×width (mm)/2
b, According to the size of the tumor, the mice were grouped by random grouping.
c, According to the results of the grouping, the test drug was administered (administration method: oral administration, administration dose: 30 mg/kg, administration volume: 10 mL/kg, administration frequency: 2 times/day, […], vehicle: 0.5% CMC/1% Tween 80).
d, The tumor was measured and weighed twice a week after the test drug was administrated.
e, Animals were euthanized at the end of the test.

[1] = Pharmacokinetic (PK) analysis in rats; type: in vivo, Sprague Dawley (SD) rats; conditions: SD rats, single intragastric administration, 5 mg/kg
Method in brief: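 Intravenous blood (0.2 ml) was collected into K2EDTA and centrifuged to obtain plasma. Plasma (40 μL) was protein-precipitated with 160 μL acetonitrile. Compound levels were measured by LC/MS/MS on a C18 column using 0.1% formic acid in water and acetonitrile at 0.8 mL/min.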

FGFR1 kinase = FGFR1 kinase (Homo sapiens (Human), UniProt P11362); test: Enzymologic experiment of FGFR1 (TR-FRET); type: biochemical; conditions: FGFR1 kinase activity
FGFR1 kinase, sequence (P11362 22-822): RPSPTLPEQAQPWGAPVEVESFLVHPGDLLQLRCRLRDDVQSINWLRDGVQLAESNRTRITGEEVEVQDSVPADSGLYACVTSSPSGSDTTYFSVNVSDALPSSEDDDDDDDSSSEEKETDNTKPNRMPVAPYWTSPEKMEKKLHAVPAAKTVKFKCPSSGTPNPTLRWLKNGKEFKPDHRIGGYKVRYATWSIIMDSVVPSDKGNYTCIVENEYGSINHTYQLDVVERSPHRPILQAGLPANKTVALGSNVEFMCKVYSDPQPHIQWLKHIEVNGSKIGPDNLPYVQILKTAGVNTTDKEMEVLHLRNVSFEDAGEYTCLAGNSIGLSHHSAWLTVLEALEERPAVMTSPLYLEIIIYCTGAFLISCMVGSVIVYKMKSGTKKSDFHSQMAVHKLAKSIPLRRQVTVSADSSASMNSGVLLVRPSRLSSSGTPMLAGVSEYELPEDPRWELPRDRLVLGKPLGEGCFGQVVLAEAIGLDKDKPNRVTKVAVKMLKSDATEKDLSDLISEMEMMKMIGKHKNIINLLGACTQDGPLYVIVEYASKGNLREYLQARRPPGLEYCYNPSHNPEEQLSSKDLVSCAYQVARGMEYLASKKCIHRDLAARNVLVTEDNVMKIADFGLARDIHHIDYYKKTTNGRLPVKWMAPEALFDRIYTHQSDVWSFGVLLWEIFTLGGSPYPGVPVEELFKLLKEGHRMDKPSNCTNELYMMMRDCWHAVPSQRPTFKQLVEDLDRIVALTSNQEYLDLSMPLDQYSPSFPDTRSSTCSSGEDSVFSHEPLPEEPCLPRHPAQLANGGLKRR
Method in brief: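 FGFR1 at 0.1˜5 nM final with substrate peptide 5˜50 nM and ATP 10˜200 μM final, 0.5˜3 h at room temperature. Stopped with EDTA plus labeled antibody for 1 h; TR-FRET signal read at 665 nm, IC50 fitted from inhibition rates.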

HuH-7 cells = test: Inhibition of HuH-7 cell proliferation (CellTiter-Glo); type: cell-based; conditions: Homo sapiens; HuH-7 cell proliferation, 72 hours, CellTiter-Glo; read-out: HuH-7 IC50
Method in brief: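 HuH-7 cells plated and left 16–24 h, then exposed to serially diluted compound for 72 h at 37 °C, 5% CO2. Viability read by CellTiter-Glo luminescence. IC50 obtained by curve fitting of inhibition rates.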

FGFR4 kinase = FGFR4 kinase (Homo sapiens (Human), UniProt P22455); test: Enzymologic experiment of FGFR4 (TR-FRET); type: biochemical; conditions: FGFR4 kinase activity
FGFR4 kinase, sequence (P22455 22-802): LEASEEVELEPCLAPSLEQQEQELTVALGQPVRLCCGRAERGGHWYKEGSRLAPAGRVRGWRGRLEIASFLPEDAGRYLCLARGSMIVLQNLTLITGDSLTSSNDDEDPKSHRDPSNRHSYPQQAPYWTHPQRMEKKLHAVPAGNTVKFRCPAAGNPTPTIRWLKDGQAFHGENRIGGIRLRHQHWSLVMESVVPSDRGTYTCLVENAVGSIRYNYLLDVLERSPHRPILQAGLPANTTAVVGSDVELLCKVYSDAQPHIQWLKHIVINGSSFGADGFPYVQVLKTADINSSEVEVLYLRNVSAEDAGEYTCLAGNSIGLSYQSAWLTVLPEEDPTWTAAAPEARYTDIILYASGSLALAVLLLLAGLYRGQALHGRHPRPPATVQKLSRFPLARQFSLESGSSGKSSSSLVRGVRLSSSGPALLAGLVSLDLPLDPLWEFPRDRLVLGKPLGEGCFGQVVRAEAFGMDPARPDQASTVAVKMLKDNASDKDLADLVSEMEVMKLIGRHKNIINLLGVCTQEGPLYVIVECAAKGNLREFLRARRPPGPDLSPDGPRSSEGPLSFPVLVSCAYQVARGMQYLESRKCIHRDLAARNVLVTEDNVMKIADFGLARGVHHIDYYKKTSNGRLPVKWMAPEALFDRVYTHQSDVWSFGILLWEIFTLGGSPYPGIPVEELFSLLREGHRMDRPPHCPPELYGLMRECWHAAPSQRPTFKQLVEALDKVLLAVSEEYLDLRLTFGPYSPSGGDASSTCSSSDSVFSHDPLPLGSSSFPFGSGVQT

IC50 (SK-HEP-1 cells): > 10000 nM
Peak Time tmax ([1]; (sampling in hours)): 2 h
AUC(0-t) ([1]; Sprague-Dawley, rat, plasma, po, read-out: Area Under Curve AUC0-t): 2910 ng·h/mL
AUC(0-inf) ([1]; Sprague-Dawley, rat, plasma, po, read-out: Area Under Curve AUC0-∞): 3390 ng·h/mL
half-life ([1]; Sprague-Dawley, rat, plasma, po, read-out: Half-Time t1/2 (converted)): 1.02 h
MRT ([1]; Sprague-Dawley, rat, plasma, po, read-out: Mean Residence Time MRT): 3.72 h
Cmax ([1]; Sprague-Dawley, rat, plasma, po, read-out: Plasma Concentration Cmax): 3180 ng/mL
IC50 (FGFR1 kinase): > 10000 nM
IC50 (HuH-7 cells): 15.2 nM
IC50 (FGFR4 kinase): 1.62 nM
SMILES: COCCNc1cc(NC(=O)N2CCCc3cc(CN4CCN(C5CC5)CC4=O)c(C=O)nc32)ncc1C#N [Example 65]
IC50 (Hep 3B cells): 4.3 nM
inhibition in vivo at 30 mg/kg (Hep 3B cell line tumor): 130%
